From ChEMBL document CHEMBL3046001, “4-Thiazolidinone and 1-thia-3,4,9-triaza fluorene conjugates: synthesis, characterization and antimicrobial screening” (2013)
≈ marks a conversion by molar mass, not a printed value. Calls of active or inactive are those of the source. The calls are words filed in the database; no cut-off is given here.

Assays:
[1] = system: Bacillus pumilus; experiment: Antibacterial activity against Bacillus pumilus MTCC 1456 assessed as growth inhibition at 100 ug/mL after 48 hr by agar diffusion method; format: functional; details: MTCC 1456, 48 h, read-out: DIZ
[2] = system: Pseudomonas fluorescens; experiment: Antibacterial activity against Pseudomonas fluorescens MTCC 2421 assessed as growth inhibition at 500 ug/mL after 48 hr by agar diffusion method; format: functional; details: MTCC 2421, 48 h, read-out: DIZ
[3] = system: Pseudomonas fluorescens; experiment: Antibacterial activity against Pseudomonas fluorescens MTCC 2421 assessed as growth inhibition at 100 ug/mL after 48 hr by agar diffusion method; format: functional; details: MTCC 2421, 48 h, read-out: DIZ
[4] = system: Micrococcus luteus; experiment: Antibacterial activity against Micrococcus luteus MTCC 1538 assessed as growth inhibition at 750 ug/mL after 48 hr by agar diffusion method; format: functional; details: MTCC 1538, 48 h, read-out: DIZ
[5] = system: Pseudomonas fluorescens; experiment: Antibacterial activity against Pseudomonas fluorescens MTCC 2421 assessed as growth inhibition at 1250 ug/mL after 48 hr by agar diffusion method; format: functional; details: MTCC 2421, 48 h, read-out: DIZ
[6] = system: Bacillus subtilis; experiment: Antibacterial activity against Bacillus subtilis MTCC 441 assessed as growth inhibition at 250 ug/mL after 48 hr by agar diffusion method; format: functional; details: MTCC 441, 48 h, read-out: DIZ
[7] = system: Penicillium chrysogenum; experiment: Antifungal activity against Penicillium chrysogenum MTCC 161 assessed as growth inhibition at 100 ug/mL after 48 hr by agar diffusion method; format: functional, organism-based
[8] = system: Escherichia coli; experiment: Antibacterial activity against Escherichia coli MTCC 1573 assessed as growth inhibition at 500 ug/mL after 48 hr by agar diffusion method; format: functional; details: MTCC 1573, 48 h, read-out: DIZ
[9] = system: Pseudomonas aeruginosa; experiment: Antibacterial activity against Pseudomonas aeruginosa MTCC 424 assessed as growth inhibition at 1000 ug/mL after 48 hr by agar diffusion method; format: functional; details: MTCC 424, 48 h, read-out: DIZ
[10] = system: Pseudomonas aeruginosa; experiment: Antibacterial activity against Pseudomonas aeruginosa MTCC 424 assessed as growth inhibition at 250 ug/mL after 48 hr by agar diffusion method; format: functional; details: MTCC 424, 48 h, read-out: DIZ
[11] = system: Pseudomonas aeruginosa; experiment: Antibacterial activity against Pseudomonas aeruginosa MTCC 424 assessed as growth inhibition at 500 ug/mL after 48 hr by agar diffusion method; format: functional; details: MTCC 424, 48 h, read-out: DIZ
[12] = system: Micrococcus luteus; experiment: Antibacterial activity against Micrococcus luteus MTCC 1538 assessed as growth inhibition at 1000 ug/mL after 48 hr by agar diffusion method; format: functional; details: MTCC 1538, 48 h, read-out: DIZ
[13] = system: Staphylococcus aureus; experiment: Antibacterial activity against Staphylococcus aureus MTCC 1430 assessed as growth inhibition at 1000 ug/mL after 48 hr by agar diffusion method; format: functional; details: MTCC 1430, 48 h, read-out: DIZ
[14] = system: Bacillus pumilus; experiment: Antibacterial activity against Bacillus pumilus MTCC 1456 assessed as growth inhibition at 750 ug/mL after 48 hr by agar diffusion method; format: functional; details: MTCC 1456, 48 h, read-out: DIZ
[15] = system: Pseudomonas fluorescens; experiment: Antibacterial activity against Pseudomonas fluorescens MTCC 2421 assessed as growth inhibition at 750 ug/mL after 48 hr by agar diffusion method; format: functional; details: MTCC 2421, 48 h, read-out: DIZ
[16] = system: Bacillus subtilis; experiment: Antibacterial activity against Bacillus subtilis MTCC 441 assessed as growth inhibition after 24 hr by tube dilution method; format: functional; details: MTCC 441, 24 h
[17] = system: Pseudomonas aeruginosa; experiment: Antibacterial activity against Pseudomonas aeruginosa MTCC 424 assessed as growth inhibition after 24 hr by tube dilution method; format: functional; details: MTCC 424, 24 h
[18] = system: Bacillus pumilus; experiment: Antibacterial activity against Bacillus pumilus MTCC 1456 assessed as growth inhibition at 250 ug/mL after 48 hr by agar diffusion method; format: functional; details: MTCC 1456, 48 h, read-out: DIZ
[19] = system: Bacillus subtilis; experiment: Antibacterial activity against Bacillus subtilis MTCC 441 assessed as growth inhibition at 1000 ug/mL after 48 hr by agar diffusion method; format: functional; details: MTCC 441, 48 h, read-out: DIZ
[20] = system: Bacillus subtilis; experiment: Antibacterial activity against Bacillus subtilis MTCC 441 assessed as growth inhibition at 500 ug/mL after 48 hr by agar diffusion method; format: functional; details: MTCC 441, 48 h, read-out: DIZ
[21] = system: Bacillus pumilus; experiment: Antibacterial activity against Bacillus pumilus MTCC 1456 assessed as growth inhibition after 24 hr by tube dilution method; format: functional; details: MTCC 1456, 24 h
[22] = system: Aspergillus niger; experiment: Antifungal activity against Aspergillus niger MTCC 2546 assessed as growth inhibition after 24 hr by tube dilution method; format: functional; details: MTCC 2546, 24 h
[23] = system: Micrococcus luteus; experiment: Antibacterial activity against Micrococcus luteus MTCC 1538 assessed as growth inhibition at 500 ug/mL after 48 hr by agar diffusion method; format: functional; details: MTCC 1538, 48 h, read-out: DIZ
[24] = system: Bacillus subtilis; experiment: Antibacterial activity against Bacillus subtilis MTCC 441 assessed as growth inhibition at 750 ug/mL after 48 hr by agar diffusion method; format: functional; details: MTCC 441, 48 h, read-out: DIZ
[25] = system: Aspergillus niger; experiment: Antifungal activity against Aspergillus niger MTCC 2546 assessed as growth inhibition at 1000 ug/mL after 48 hr by agar diffusion method; format: functional; details: MTCC 2546, 48 h, read-out: DIZ
[26] = system: Staphylococcus aureus; experiment: Antibacterial activity against Staphylococcus aureus MTCC 1430 assessed as growth inhibition at 500 ug/mL after 48 hr by agar diffusion method; format: functional; details: MTCC 1430, 48 h, read-out: DIZ
[27] = system: Penicillium chrysogenum; experiment: Antifungal activity against Penicillium chrysogenum MTCC 161 assessed as growth inhibition at 500 ug/mL after 48 hr by agar diffusion method; format: functional; details: MTCC 161, 48 h, read-out: DIZ
[28] = system: Pseudomonas aeruginosa; experiment: Antibacterial activity against Pseudomonas aeruginosa MTCC 424 assessed as growth inhibition at 750 ug/mL after 48 hr by agar diffusion method; format: functional; details: MTCC 424, 48 h, read-out: DIZ
[29] = system: Escherichia coli; experiment: Antibacterial activity against Escherichia coli MTCC 1573 assessed as growth inhibition at 1000 ug/mL after 48 hr by agar diffusion method; format: functional; details: MTCC 1573, 48 h, read-out: DIZ
[30] = system: Pseudomonas fluorescens; experiment: Antibacterial activity against Pseudomonas fluorescens MTCC 2421 assessed as growth inhibition after 24 hr by tube dilution method; format: functional; details: MTCC 2421, 24 h
[31] = system: Penicillium chrysogenum; experiment: Antifungal activity against Penicillium chrysogenum MTCC 161 assessed as growth inhibition at 1000 ug/mL after 48 hr by agar diffusion method; format: functional; details: MTCC 161, 48 h, read-out: DIZ
[32] = system: Aspergillus niger; experiment: Antifungal activity against Aspergillus niger MTCC 2546 assessed as growth inhibition at 1250 ug/mL after 48 hr by agar diffusion method; format: functional; details: MTCC 2546, 48 h, read-out: DIZ
[33] = system: Staphylococcus aureus; experiment: Antibacterial activity against Staphylococcus aureus MTCC 1430 assessed as growth inhibition at 250 ug/mL after 48 hr by agar diffusion method; format: functional
[34] = system: Aspergillus niger; experiment: Antifungal activity against Aspergillus niger MTCC 2546 assessed as growth inhibition at 500 ug/mL after 48 hr by agar diffusion method; format: functional; details: MTCC 2546, 48 h, read-out: DIZ
[35] = system: Penicillium chrysogenum; experiment: Antifungal activity against Penicillium chrysogenum MTCC 161 assessed as growth inhibition at 1250 ug/mL after 48 hr by agar diffusion method; format: functional; details: MTCC 161, 48 h, read-out: DIZ
[36] = system: Bacillus subtilis; experiment: Antibacterial activity against Bacillus subtilis MTCC 441 assessed as growth inhibition at 100 ug/mL after 48 hr by agar diffusion method; format: functional
[37] = system: Escherichia coli; experiment: Antibacterial activity against Escherichia coli MTCC 1573 assessed as growth inhibition at 250 ug/mL after 48 hr by agar diffusion method; format: functional; details: MTCC 1573, 48 h, read-out: DIZ
[38] = system: Pseudomonas aeruginosa; experiment: Antibacterial activity against Pseudomonas aeruginosa MTCC 424 assessed as growth inhibition at 1250 ug/mL after 48 hr by agar diffusion method; format: functional; details: MTCC 424, 48 h, read-out: DIZ
[39] = system: Escherichia coli; experiment: Antibacterial activity against Escherichia coli MTCC 1573 assessed as growth inhibition at 750 ug/mL after 48 hr by agar diffusion method; format: functional; details: MTCC 1573, 48 h, read-out: DIZ

| SMILES | zone of inhibition at 100 µg/mL [1] [mm] | zone of inhibition at 500 µg/mL [2] [mm] | zone of inhibition at 100 µg/mL [3] [mm] | zone of inhibition at 750 µg/mL [4] [mm] | zone of inhibition at 1250 µg/mL [5] [mm] | zone of inhibition at 250 µg/mL [6] [mm] | growth inhibition (GI) [7] | zone of inhibition at 500 µg/mL [8] [mm] | zone of inhibition at 1000 µg/mL [9] [mm] | zone of inhibition at 250 µg/mL [10] [mm] | zone of inhibition at 500 µg/mL [11] [mm] | zone of inhibition at 1000 µg/mL [12] [mm] | zone of inhibition at 1000 µg/mL [13] [mm] | zone of inhibition at 750 µg/mL [14] [mm] | zone of inhibition at 750 µg/mL [15] [mm] | MIC [16] [µg/mL] | MIC [17] [µg/mL] | zone of inhibition at 250 µg/mL [18] [mm] | zone of inhibition at 1000 µg/mL [19] [mm] | zone of inhibition at 500 µg/mL [20] [mm] | also measured |
| --- | --- | --- | --- | --- | --- | --- | --- | --- | --- | --- | --- | --- | --- | --- | --- | --- | --- | --- | --- | --- | --- |
| O=C1CSC(c2cccc3ccccc23)N1c1nnc2c3cc(Cl)ccc3nc-2s1 (stereo not drawn) | 8 | 12 | 8 | 12 | 24 | 7 | inactive | 13 | 15 | 10 | 12 | 15 | 10 | 15 | 15 | 150 (≈ 334 µM) | 40 (≈ 89.1 µM) | 10 | 18 | 11 | MIC [21]: 40 µg/mL (≈ 89.1 µM); MIC [22]: 150 µg/mL (≈ 334 µM); zone of inhibition at 500 µg/mL [23]: 8 mm; zone of inhibition at 750 µg/mL [24]: 15 mm; zone of inhibition at 1000 µg/mL [25]: 15 mm; zone of inhibition at 500 µg/mL [26]: 6 mm; zone of inhibition at 500 µg/mL [27]: 11 mm; zone of inhibition at 750 µg/mL [28]: 13 mm; zone of inhibition at 1000 µg/mL [29]: 17 mm; MIC [30]: 40 µg/mL (≈ 89.1 µM); zone of inhibition at 1000 µg/mL [31]: 15 mm; zone of inhibition at 1250 µg/mL [32]: 18 mm; growth inhibition (GI) [33]: inactive; zone of inhibition at 500 µg/mL [34]: 11 mm; zone of inhibition at 1250 µg/mL [35]: 18 mm; growth inhibition (GI) [36]: inactive; zone of inhibition at 250 µg/mL [37]: 10 mm; zone of inhibition at 1250 µg/mL [38]: 18 mm; zone of inhibition at 750 µg/mL [39]: 15 mm |
| CC1SCC(=O)N1c1nnc2c3ccccc3nc-2s1 (stereo not drawn) | 7 | 13 | 8 | 14 | 24 | 13 | inactive | 13 | 20 | 11 | 12 | 17 | 15 | 18 | 17 | 30 (≈ 99.2 µM) | 30 (≈ 99.2 µM) | 9 | 20 | 15 | MIC [21]: 30 µg/mL (≈ 99.2 µM); MIC [22]: 250 µg/mL (≈ 827 µM); zone of inhibition at 500 µg/mL [23]: 12 mm; zone of inhibition at 750 µg/mL [24]: 18 mm; zone of inhibition at 1000 µg/mL [25]: 14 mm; zone of inhibition at 500 µg/mL [26]: 8 mm; zone of inhibition at 500 µg/mL [27]: 10 mm; zone of inhibition at 750 µg/mL [28]: 15 mm; zone of inhibition at 1000 µg/mL [29]: 18 mm; MIC [30]: 30 µg/mL (≈ 99.2 µM); zone of inhibition at 1000 µg/mL [31]: 15 mm; zone of inhibition at 1250 µg/mL [32]: 17 mm; growth inhibition (GI) [33]: inactive; zone of inhibition at 500 µg/mL [34]: 8 mm; zone of inhibition at 1250 µg/mL [35]: 17 mm; zone of inhibition at 100 µg/mL ([36]; MTCC 441, 48 h, read-out: DIZ): 10 mm; zone of inhibition at 250 µg/mL [37]: 10 mm; zone of inhibition at 1250 µg/mL [38]: 24 mm; zone of inhibition at 750 µg/mL [39]: 15 mm |
